These results are taken from ChEMBL document CHEMBL1201862, “PubChem BioAssay data set” (2004).

Series [1] can be described thus: Late-stage probe development counterscreen for inhibitors of the Hepatitis C Virus non-structural protein 3 helicase (NS3): luminescence-based cell-based dose response assay to determine whether compounds that inhibit replication of HCV RNA replicon are cytotoxic. [Related pubchem assays (depositor defined):AID1800, AID1830, AID1845, AID1943, AID1945, AID2172, AID2173, AID2474, AID2476]. It counts as functional. In general terms: The purpose of a counterscreen is to sort out artefacts and off-target activity.

For series [2], the target named is T1, Replicative DNA helicase DnaB (Mycobacterium tuberculosis, UniProt P9WMR3).
T1 sequence (P9WMR3 whole entry): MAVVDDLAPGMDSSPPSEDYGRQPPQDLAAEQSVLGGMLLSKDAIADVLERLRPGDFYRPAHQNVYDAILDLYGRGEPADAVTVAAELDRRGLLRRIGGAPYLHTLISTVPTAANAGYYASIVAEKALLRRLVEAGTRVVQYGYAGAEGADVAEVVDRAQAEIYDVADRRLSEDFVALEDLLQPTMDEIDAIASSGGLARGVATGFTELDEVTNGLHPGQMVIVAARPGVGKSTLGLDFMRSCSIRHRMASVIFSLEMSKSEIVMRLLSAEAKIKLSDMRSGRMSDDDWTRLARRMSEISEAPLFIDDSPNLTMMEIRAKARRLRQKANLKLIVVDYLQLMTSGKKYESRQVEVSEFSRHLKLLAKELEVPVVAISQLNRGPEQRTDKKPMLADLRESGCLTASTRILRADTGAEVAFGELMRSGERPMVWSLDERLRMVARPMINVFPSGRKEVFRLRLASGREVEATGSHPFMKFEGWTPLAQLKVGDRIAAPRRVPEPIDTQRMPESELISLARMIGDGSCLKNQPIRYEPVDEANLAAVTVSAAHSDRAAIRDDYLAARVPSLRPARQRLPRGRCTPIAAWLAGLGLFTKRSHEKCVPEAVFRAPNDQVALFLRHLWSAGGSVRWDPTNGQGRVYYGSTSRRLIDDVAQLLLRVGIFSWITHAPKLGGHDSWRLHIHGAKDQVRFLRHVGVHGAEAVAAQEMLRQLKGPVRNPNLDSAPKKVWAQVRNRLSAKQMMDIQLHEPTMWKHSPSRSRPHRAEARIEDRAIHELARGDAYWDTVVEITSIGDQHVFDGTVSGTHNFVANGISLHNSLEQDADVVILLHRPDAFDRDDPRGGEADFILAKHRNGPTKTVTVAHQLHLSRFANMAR
Briefly: DnaB intein splicing inhibitors, dose response, biochemical, cell-free fluorescence (AID 449749). It counts as functional.

Series [3] relates to MDCK. Briefly: antiviral activity against H1N1 influenza, dose response, cell-based, strain KY136 (AID 540257). It counts as functional. As to conditions: Canis lupus familiaris.
Series [4] deals with Cytochrome P450 2C19 (Homo sapiens, UniProt P33261). Briefly: Cytochrome panel assay with activity outcomes. Panel member name: p450-cyp2c19 Compounds with AC50 equal or less than 10 uM are considered active. It counts as functional.
Sequence of Cytochrome P450 2C19 (P33261 whole entry): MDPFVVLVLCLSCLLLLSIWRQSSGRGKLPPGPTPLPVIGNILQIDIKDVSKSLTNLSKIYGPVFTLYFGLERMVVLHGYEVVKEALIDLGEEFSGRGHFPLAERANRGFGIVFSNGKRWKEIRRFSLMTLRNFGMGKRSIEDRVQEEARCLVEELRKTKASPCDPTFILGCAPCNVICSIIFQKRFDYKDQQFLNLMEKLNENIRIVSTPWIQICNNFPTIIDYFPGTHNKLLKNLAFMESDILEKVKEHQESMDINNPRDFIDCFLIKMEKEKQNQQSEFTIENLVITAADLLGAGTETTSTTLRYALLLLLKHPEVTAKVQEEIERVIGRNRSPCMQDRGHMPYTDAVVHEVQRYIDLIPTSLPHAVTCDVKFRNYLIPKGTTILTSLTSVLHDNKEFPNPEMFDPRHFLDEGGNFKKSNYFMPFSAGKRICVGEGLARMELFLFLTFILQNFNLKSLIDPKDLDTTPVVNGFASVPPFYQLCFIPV
Series [5] concerns the target T2, Protein RecA (Mycobacterium tuberculosis, UniProt P9WHJ3).
T2 sequence (P9WHJ3 whole entry): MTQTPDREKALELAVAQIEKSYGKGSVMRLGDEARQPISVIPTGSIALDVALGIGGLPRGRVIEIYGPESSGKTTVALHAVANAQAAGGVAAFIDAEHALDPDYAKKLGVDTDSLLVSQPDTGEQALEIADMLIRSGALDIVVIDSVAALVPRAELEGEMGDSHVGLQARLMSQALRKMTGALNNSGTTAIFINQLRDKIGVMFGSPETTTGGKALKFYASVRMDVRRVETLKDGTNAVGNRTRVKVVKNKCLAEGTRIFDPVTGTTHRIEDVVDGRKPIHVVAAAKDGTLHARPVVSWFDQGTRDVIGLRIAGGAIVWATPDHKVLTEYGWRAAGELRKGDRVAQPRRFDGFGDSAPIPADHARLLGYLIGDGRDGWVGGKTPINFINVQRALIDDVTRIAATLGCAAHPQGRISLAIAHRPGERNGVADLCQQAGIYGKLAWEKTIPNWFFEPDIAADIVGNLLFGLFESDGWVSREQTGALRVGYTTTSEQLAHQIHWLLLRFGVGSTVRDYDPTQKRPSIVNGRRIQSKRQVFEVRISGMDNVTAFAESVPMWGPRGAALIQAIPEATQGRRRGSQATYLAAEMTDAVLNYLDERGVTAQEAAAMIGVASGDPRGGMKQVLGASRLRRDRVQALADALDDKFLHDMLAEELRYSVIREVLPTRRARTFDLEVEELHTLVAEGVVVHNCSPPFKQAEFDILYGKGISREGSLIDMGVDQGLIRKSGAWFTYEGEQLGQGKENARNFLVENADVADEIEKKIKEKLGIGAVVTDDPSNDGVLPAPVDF
Briefly: Fluorescence Cell-Free Homogeneous Dose Retest to Identify Inhibitors of RecA-Intein Splicing Activity. [Related pubchem assays (depositor defined):AID2097, AID2223, AID489010, AID492950]. In kind it is functional.

The target in series [6] is Cytochrome P450 2C9 (Homo sapiens, UniProt P11712).
Sequence of Cytochrome P450 2C9 (P11712 whole entry): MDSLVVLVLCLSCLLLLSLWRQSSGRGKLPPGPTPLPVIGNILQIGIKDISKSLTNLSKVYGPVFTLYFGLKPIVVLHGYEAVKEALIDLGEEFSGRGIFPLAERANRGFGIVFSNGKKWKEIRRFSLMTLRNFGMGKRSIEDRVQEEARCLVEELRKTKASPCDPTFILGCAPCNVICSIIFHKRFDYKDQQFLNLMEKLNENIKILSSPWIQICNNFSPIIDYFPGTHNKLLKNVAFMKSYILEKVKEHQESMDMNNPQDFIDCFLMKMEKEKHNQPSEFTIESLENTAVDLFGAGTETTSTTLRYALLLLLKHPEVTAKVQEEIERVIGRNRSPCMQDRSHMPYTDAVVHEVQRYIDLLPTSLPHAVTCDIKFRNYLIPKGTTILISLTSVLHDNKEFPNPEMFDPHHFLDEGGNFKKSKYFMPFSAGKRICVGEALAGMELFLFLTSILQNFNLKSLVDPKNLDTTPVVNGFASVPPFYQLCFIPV
Series [7] has as its target Nonstructural protein 1 (Influenza A virus, UniProt Q194T2). It counts as functional, Influenza A virus (A/California/07/2009(H1N1)).
Series [8] has as its target T3, Cytochrome P450 1A2 (Homo sapiens, UniProt P05177).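 Also: PubChem cytochrome P450 panel assay, CYP1A2 panel member.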
T3 sequence (P05177 whole entry): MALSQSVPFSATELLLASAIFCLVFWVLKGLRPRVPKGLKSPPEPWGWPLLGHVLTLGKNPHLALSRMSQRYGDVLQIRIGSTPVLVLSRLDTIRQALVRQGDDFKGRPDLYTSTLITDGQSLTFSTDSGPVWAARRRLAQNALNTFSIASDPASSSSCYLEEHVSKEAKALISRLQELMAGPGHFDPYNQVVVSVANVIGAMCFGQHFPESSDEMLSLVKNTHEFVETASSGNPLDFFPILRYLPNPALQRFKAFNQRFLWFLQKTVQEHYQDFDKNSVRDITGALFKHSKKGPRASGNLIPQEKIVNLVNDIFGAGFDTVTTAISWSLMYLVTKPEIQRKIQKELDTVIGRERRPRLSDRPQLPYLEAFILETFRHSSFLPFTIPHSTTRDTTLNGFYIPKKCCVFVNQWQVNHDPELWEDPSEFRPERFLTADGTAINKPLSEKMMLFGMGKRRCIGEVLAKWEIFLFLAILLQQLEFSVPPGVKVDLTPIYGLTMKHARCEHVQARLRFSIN

In series [9] the target is Dual specificity protein phosphatase 3 (Homo sapiens, UniProt P51452). Briefly: SAR VHR1 Fluorescent Assay for In Vitro dose response studies Set 3. [Related pubchem assays (depositor defined):AID1654, AID1661, AID1878]. It counts as functional.
Sequence of Dual specificity protein phosphatase 3 (P51452 whole entry): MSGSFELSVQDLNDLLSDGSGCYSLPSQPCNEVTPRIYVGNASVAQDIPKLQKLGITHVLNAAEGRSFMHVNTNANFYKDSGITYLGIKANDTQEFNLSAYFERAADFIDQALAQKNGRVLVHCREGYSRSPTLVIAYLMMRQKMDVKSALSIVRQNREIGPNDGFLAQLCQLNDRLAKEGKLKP
Series [10] deals with E3 ubiquitin-protein ligase Mdm2 (Homo sapiens, UniProt Q00987). Briefly: enhancers of MDM2-luciferase reporter signal, concentration-effect titration, project on inhibitors of MDM2 ubiquitin ligase, cellular assay, luminescent readout, 384-well plate format (AID 1394).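 Also: MDM2 E3 inhibitors raise luminescence so EC50 is for signal enhancement.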 In kind it is functional. On the technique in general: Reporter assays use an easily measured gene product as a stand-in for the process of interest.
Sequence of E3 ubiquitin-protein ligase Mdm2 (Q00987 whole entry): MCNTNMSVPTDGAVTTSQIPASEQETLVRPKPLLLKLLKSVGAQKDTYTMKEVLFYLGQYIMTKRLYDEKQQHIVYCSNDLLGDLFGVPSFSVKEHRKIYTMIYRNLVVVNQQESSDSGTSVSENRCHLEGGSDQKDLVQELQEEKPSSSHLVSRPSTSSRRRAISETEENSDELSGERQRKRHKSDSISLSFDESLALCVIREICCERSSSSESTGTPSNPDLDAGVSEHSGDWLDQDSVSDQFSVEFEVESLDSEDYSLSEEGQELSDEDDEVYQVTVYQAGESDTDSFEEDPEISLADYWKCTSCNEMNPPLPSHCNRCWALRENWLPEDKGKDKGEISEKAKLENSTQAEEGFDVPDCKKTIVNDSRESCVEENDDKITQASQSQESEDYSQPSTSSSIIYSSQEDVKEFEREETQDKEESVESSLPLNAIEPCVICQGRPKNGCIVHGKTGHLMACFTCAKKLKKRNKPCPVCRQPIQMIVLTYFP

Series [11] in a line: HepG2 cell cytotoxicity, dose response, cytotoxicity control for Shn3 inhibitor project, CellTiter-Glo, cherry-picked (AID 624134). It counts as functional, cell-based.
Series [12] in a line: Luminescence Cell-Based Dose Retest to Confirm Inhibitors of Cancer Stem Cells. [Related pubchem assays (depositor defined):AID2717, AID2721]. It counts as functional. Conditions: Homo sapiens.
The nature of series [13]: cytotoxicity in HMLE control line with eGFP shRNA, dose response, counter-screen for HMLE_sh_ECad selective toxicity project, cell-based, HMLE_sh_eGFP, luminescence (AID 463074).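 Also: HMLE human mammary epithelial cells expressing control shRNA against eGFP.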 In kind it is functional, Homo sapiens.
Series [14] in a line: control 3'UTR Renilla luciferase suppression, dose response, counter-screen for Shn3 inhibitor project, cell-based, Clone20-Shn3RL, cherry-picked (AID 624133). In kind it is functional.
Series [15] is described as follows: growth induction of Burl-1 ts yeast mutant, dose response, counter-screen for SUMOylation pathway inhibitor project, whole organism, S. cerevisiae, luminescence (AID 463199). It counts as functional.
Series [16] addresses T4, Voltage-gated N-type calcium channel alpha-1B subunit/Amyloid beta A4 precursor protein-binding family A member 1 (Homo sapiens, UniProt Q00975+Q02410). It counts as protein assay.
Series [17] has as its target T5, Apoptotic protease-activating factor 1 (Homo sapiens, UniProt O14727).
T5 sequence (O14727 whole entry): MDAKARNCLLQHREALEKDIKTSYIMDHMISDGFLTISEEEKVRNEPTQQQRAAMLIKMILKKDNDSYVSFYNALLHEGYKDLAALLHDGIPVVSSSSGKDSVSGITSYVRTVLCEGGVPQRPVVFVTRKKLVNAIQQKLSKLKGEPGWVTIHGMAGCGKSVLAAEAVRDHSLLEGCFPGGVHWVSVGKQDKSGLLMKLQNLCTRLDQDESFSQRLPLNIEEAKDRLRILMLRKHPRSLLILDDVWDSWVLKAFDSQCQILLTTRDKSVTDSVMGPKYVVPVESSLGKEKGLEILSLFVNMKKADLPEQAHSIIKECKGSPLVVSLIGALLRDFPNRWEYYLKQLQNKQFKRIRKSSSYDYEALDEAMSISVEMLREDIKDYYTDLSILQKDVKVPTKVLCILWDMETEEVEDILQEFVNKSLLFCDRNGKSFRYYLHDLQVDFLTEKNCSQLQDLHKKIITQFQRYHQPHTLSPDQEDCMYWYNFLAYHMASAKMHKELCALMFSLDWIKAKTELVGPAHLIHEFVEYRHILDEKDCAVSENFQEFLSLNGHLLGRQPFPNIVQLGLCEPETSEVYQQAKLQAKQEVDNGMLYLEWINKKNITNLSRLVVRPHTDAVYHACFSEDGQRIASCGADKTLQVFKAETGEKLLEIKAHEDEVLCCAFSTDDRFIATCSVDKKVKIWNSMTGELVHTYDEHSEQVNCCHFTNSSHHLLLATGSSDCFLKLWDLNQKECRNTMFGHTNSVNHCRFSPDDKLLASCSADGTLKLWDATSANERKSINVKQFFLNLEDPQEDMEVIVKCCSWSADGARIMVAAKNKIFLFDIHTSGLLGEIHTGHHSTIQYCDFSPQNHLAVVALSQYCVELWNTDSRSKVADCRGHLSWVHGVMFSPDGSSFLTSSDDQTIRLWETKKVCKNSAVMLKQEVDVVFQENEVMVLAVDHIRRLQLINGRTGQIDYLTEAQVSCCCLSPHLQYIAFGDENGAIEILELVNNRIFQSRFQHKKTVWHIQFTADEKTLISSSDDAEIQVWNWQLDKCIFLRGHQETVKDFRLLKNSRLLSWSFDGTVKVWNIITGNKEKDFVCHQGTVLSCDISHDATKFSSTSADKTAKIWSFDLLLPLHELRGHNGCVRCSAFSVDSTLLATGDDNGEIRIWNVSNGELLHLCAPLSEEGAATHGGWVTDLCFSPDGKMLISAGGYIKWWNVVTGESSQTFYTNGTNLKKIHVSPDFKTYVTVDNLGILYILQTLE
It counts as functional.

The test system of series [18] is HEK293. Briefly: NOD2 signaling inhibitors in MDP-stimulated cells, cell-based, uHTS, luminescence (AID 2001). In kind it is functional. As to conditions: Homo sapiens.
In series [19] the test system is HEK293. Briefly: cells. Conditions: Homo sapiens. In kind it is functional, cell-based.
The test system of series [20] is HEK293. Put plainly: cells. It counts as functional, cell-based. Conditions: Homo sapiens. The source holds these as a separate data set.
Series [21] relates to HEK293. Briefly: cells. In kind it is functional, cell-based. As to conditions: Homo sapiens. This is another data set of the same source.
Series [22] concerns the target Nucleotide-binding oligomerization domain-containing protein 2 (Homo sapiens, UniProt Q9HC29). Put plainly: NOD2 signaling inhibitors, cell-based, luminescence, uHTS, HEK293 (AID 1566). It counts as functional.
The target of series [23] is T4, Voltage-gated N-type calcium channel alpha-1B subunit/Amyloid beta A4 precursor protein-binding family A member 1. In kind it is protein assay. The source holds these as a separate data set.
The subject of series [24] is HEK293. Put plainly: NOD1 signaling inhibitors, primary screen, cell-based, luminescence, uHTS (AID 1578). In kind it is functional. Conditions: Homo sapiens.

Active and inactive are the calls of the source. Bounds are passed on as bounds.

T4 sequence (Q00975 whole entry): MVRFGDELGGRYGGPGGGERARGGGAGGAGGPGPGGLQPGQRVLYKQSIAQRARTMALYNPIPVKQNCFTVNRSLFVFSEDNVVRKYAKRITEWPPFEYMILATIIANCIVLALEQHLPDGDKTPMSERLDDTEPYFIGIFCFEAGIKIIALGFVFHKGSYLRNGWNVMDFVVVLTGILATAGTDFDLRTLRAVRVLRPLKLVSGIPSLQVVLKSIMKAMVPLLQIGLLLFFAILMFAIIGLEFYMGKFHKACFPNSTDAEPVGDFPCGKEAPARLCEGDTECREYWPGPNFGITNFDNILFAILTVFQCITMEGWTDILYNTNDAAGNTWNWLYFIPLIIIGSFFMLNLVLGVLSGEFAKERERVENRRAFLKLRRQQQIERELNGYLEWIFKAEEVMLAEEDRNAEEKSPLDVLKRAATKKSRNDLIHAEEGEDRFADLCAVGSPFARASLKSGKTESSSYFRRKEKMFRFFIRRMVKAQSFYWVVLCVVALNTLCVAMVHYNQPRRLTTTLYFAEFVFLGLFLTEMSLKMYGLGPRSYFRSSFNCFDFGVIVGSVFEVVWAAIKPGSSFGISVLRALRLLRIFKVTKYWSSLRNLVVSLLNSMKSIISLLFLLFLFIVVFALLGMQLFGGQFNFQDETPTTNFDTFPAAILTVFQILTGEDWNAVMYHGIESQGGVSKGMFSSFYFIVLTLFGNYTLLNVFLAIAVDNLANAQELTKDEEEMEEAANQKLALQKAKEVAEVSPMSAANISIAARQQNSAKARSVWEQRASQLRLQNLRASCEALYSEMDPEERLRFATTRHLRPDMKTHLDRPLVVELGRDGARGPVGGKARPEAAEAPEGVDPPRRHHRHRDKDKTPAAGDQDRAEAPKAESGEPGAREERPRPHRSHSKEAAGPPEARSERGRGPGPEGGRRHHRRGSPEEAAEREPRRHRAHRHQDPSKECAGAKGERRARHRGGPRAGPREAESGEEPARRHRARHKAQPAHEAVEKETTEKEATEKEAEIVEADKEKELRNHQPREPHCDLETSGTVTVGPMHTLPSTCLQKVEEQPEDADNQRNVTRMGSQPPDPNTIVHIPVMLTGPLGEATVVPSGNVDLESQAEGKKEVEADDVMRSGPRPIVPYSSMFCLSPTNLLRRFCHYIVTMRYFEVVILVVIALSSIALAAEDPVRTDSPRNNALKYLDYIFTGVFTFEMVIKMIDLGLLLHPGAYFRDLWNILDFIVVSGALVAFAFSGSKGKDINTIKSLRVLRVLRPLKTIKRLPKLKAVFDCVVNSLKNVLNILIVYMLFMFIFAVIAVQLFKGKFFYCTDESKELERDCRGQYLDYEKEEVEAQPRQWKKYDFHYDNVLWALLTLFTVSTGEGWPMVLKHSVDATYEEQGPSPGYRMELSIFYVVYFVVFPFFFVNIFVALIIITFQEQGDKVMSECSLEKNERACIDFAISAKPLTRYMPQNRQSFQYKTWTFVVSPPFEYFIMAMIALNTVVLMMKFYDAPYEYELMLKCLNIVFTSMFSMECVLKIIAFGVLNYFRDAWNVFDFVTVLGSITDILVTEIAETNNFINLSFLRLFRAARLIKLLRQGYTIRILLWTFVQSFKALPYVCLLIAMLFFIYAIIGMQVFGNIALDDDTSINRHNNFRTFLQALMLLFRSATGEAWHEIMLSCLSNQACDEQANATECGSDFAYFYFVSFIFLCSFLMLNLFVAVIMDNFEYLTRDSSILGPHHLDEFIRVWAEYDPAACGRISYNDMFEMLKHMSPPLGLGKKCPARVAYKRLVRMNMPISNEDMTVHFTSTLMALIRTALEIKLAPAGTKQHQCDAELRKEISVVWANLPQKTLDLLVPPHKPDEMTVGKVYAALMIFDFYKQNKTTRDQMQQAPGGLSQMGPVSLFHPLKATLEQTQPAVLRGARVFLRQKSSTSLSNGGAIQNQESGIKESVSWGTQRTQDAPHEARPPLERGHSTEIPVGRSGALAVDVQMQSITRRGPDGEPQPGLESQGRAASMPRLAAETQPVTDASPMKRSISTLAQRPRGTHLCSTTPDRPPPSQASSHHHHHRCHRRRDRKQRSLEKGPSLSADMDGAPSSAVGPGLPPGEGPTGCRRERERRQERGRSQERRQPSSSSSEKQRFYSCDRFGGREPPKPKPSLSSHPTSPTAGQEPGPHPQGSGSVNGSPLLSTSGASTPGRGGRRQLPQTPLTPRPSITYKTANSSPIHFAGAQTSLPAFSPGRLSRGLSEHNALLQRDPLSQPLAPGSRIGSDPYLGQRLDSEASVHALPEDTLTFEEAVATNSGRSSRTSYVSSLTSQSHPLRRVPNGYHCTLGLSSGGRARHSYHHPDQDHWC
T4 sequence (Q02410 whole entry): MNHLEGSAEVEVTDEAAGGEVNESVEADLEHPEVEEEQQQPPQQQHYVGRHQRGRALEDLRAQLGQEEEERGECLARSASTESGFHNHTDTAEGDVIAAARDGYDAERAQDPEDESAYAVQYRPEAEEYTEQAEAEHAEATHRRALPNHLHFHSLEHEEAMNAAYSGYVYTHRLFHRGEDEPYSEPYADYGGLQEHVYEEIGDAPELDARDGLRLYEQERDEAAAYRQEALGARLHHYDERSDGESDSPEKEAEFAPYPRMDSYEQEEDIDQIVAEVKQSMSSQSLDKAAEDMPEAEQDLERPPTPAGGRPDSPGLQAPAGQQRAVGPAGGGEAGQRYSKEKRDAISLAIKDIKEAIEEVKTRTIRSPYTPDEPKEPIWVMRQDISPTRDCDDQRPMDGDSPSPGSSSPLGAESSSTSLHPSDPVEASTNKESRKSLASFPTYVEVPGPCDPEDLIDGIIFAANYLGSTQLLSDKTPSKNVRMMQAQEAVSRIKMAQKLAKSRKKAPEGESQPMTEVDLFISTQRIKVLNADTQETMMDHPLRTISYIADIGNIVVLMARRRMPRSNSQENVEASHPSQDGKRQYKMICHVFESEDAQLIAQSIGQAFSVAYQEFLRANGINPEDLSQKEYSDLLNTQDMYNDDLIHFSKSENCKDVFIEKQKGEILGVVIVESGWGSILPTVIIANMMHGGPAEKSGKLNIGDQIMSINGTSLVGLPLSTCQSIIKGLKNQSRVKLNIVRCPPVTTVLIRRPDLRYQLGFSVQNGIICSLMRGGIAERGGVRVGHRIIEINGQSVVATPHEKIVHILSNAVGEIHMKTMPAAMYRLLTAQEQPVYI
Sequence of Nonstructural protein 1 (Q194T2 whole entry): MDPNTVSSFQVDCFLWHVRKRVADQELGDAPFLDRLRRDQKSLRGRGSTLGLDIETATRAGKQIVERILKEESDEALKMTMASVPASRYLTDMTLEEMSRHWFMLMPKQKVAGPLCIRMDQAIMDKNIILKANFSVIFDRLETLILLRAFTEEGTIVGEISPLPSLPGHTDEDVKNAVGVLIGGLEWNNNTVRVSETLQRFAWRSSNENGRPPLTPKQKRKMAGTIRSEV

Broadly, the CC50 is the concentration at which the toxic effect on the cells reaches its halfway point. Consider `COc1ccc(C=NNC(=O)c2cc(O)c(O)c(O)c2)cc1COc1ccc(C(=O)OCC(C)C)cc1`, for which the CC50 in [1] is > 100 µM (inactive).
As a reminder, the AC50 is the concentration at which the activity in the assay is half-maximal. One may read the IC50 as the concentration that gives 50% inhibition. One may read the EC50 as the concentration that produces a half-maximal response. Consider `CC1(C)c2ssc(=S)c2-c2ccccc2N1C(=O)CSC1=NCCS1`, for which the AC50 in [2] is 5.8 µM (active); in [4] (read-out: AC50), 0.891 µM (inconclusive); in [6], 2.82 µM (inconclusive); in series [8] it was 2 µM (inconclusive). Further, the 50% inhibitory concentration (IC50) in series [3] was > 100 µM (active); in [7] it was 27.7 µM (active). Besides, in series [5], the EC50 was 4.27 µM (active).
Take `Cn1c(SCC(=O)Nc2ccc3nc(SCC(=O)c4ccc(Cl)cc4)sc3c2)nnc1-c1ccc(N)cc1`: the IC50 in [9] is 40.6 µM (active).
For `O=C1N/C(=C/c2ccc(N3CCOCC3)o2)C(=O)N1c1ccccc1`, in [10], the concentration giving a half-maximal response (EC50) is 6.73 µM (not active). Also, the AC50 in series [11] was > 70 µM (inactive); in series [12], > 195 µM (inactive); in [13] it was 45.7 µM (active); in series [14] it was 5.03 µM (active).
Consider `Oc1nncc(-c2ccccc2)n1`, for which the AC50 entry in [4] is “inconclusive”; in series [8], 14.1 µM (inconclusive); in series [15], 58.5 µM (active).
For the compound `CCCCCCc1cc2cc(-c3nnc(-c4ccccc4OC)o3)c(=O)oc2cc1O`, the IC50 was > 50 µM (inactive) in [16]; 15.9 µM (active) in series [17]; 8.48 µM (active) in series [18]; > 20 µM (inactive) in series [19]; 9.41 µM (active) in series [20]; > 20 µM (inactive) in series [21]. In addition, the IC50 in [23] is > 56.8 µM (not active). For the same compound, the EC50 is > 20 µM (inactive) in series [22] and 6.54 µM (active) in [24].
